Experimental data taken from article PMC7677321, “Purification and biochemical characterization of Hel a 6, a cross-reactive pectate lyase allergen from Sunflower (Helianthus annuus L.) pollen” (Scientific Reports, 2020).

Target: T1, Hel a 6 (Helianthus annuus, UniProt A0A251RNJ1)
T1 construct: gene PLY2; natural protein purified from sunflower pollen
T1 sequence (A0A251RNJ1 23-394): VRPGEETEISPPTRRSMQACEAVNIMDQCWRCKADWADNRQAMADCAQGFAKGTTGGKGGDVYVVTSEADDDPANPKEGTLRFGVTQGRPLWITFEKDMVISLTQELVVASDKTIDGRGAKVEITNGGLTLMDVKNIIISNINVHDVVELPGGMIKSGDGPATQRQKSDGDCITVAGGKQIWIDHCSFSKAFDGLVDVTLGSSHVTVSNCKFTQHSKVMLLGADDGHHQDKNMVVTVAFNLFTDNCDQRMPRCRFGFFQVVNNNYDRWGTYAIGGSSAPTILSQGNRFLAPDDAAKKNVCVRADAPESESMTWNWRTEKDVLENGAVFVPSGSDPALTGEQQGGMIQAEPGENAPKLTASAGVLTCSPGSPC
Assay: pectate lyase assay, A235 increase
Type: biochemical
Settings: 10 mM salicylic acid; 0.2% polygalacturonic acid, 0.2 mM CaCl2, 25 mM Tris-HCl pH 8.0, 37 °C (methods; results say 40 °C)

O=C(O)c1ccccc1O [salicylic acid]
pectate lyase assay, A235 increase: the enzyme activity was ceased entirely when salicylic acid was added to the reaction mix
